In patent US20250282827A1, “LIPIDATED POLYMYXIN ANALOGUES” (priority 2021, published 2025):
Values after ≈ are worked out from the molar mass of the structure shown. Positions of bridges follow the written chain, without caps; N, C: chain ends. Non-standard residues stand in square brackets, D forms with d. Residues, ends and D or L forms follow the SMILES beside them. *: point of attachment. Dab = NCC[C@H](N)C(=O)O; X6 = CCC(C)(C)C(=O)OCC*; X10 = CCC(C)CC(=O)OCC*; X7 = CC(C)CCC(=O)OCC*; X11 = O=C(OCC*)C1CC1; X5 = CCC(C)C(=O)OCC*; X9 = CC(C)CC(=O)OCC*

Columns and labels:
[1] = tested on: E. coli ATCC MS8345; type: cell-based, Escherichia coli; conditions: ATCC MS8345
Source text: (§1) All 81 compounds prepared in Examples 2 and 3 underwent screening against a panel of Gram-negative bacterium to assess their ability to inhibit bacterial growth. […] The median value is presented.
Expansion of the polymyxin macrocycle by substituting […]) offered little advantage in antimicrobial activity but was generally well tolerated although for A. baumanni and P. aeruginosa this was detrimental.

[2] = tested on: P. aeruginosa ATCC 27853; type: cell-based, Pseudomonas aeruginosa; conditions: ATCC 27853
Source text: as §1

[3] = tested on: E. coli ATCC 25922; type: cell-based, Escherichia coli; conditions: ATCC 25922
Source text: as §1

[4] = tested on: A. baumannii ATCC 19606; type: cell-based, Acinetobacter baumannii; conditions: ATCC 19606
Source text: as §1

[5] = tested on: K. pneumoniae ATCC MS6671; type: cell-based, Klebsiella pneumoniae; conditions: ATCC MS6671
Source text: as §1

[6] = tested on: K. pneumoniae ATCC 33495; type: cell-based, Klebsiella pneumoniae; conditions: ATCC 33495
Source text: as §1

[7] = tested on: K. pneumoniae ATCC 700603; type: cell-based, Klebsiella pneumoniae; conditions: ATCC 700603
Source text: as §1

| MIC E. coli ATCC MS8345 [1] [µg/mL] | MIC P. aeruginosa ATCC 27853 [2] [µg/mL] | MIC E. coli ATCC 25922 [3] [µg/mL] | MIC A. baumannii ATCC 19606 [4] [µg/mL] | MIC K. pneumoniae ATCC MS6671 [5] [µg/mL] | MIC K. pneumoniae ATCC 33495 [6] [µg/mL] | MIC K. pneumoniae ATCC 700603 [7] [µg/mL] | SMILES |
| --- | --- | --- | --- | --- | --- | --- | --- |
| 4 (≈ 3.31 µM) | 1 (≈ 0.827 µM) | 0.5 (≈ 0.414 µM) | 2 (≈ 1.65 µM) | >32 | 1 (≈ 0.827 µM) | 1 (≈ 0.827 µM) | CC(C)CCC(=O)OCCSC[C@@H](N)C(=O)N[C@H](C(=O)N[C@@H](CCN)C(=O)N[C@H]1CCNC(=O)[C@H]([C@@H](C)O)NC(=O)[C@H](CCN)NC(=O)[C@H](CCN)NC(=O)[C@H](CC(C)C)NC(=O)[C@@H](Cc2ccccc2)NC(=O)[C@H](CCN)NC1=O)[C@@H](C)O [Compound 98] (H-[dC](X7)T[Dab][Dab][Dab][dF]L[Dab][Dab]T; lactam 4-C) |
| >32 | 4 (≈ 3.31 µM) | 2 (≈ 1.65 µM) | 4 (≈ 3.31 µM) | >32 | 2 (≈ 1.65 µM) | 2 (≈ 1.65 µM) | CCC(C)(C)C(=O)OCCSC[C@@H](N)C(=O)N[C@H](C(=O)N[C@@H](CCN)C(=O)N[C@H]1CCNC(=O)[C@H]([C@@H](C)O)NC(=O)[C@H](CCN)NC(=O)[C@H](CCN)NC(=O)[C@H](CC(C)C)NC(=O)[C@@H](Cc2ccccc2)NC(=O)[C@H](CCN)NC1=O)[C@@H](C)O [Compound 99] (H-[dC](X6)T[Dab][Dab][Dab][dF]L[Dab][Dab]T; lactam 4-C) |
| >32 | 4 (≈ 3.39 µM) | 4 (≈ 3.39 µM) | 16 (≈ 13.6 µM) | >32 | 2 (≈ 1.7 µM) | 4 (≈ 3.39 µM) | CC(C)C[C@@H]1NC(=O)[C@@H](Cc2ccccc2)NC(=O)[C@H](CCN)NC(=O)[C@@H](NC(=O)[C@H](CCN)NC(=O)[C@@H](NC(=O)[C@H](N)CSCCOC(=O)C2CC2)[C@@H](C)O)CCNC(=O)[C@H]([C@@H](C)O)NC(=O)[C@H](CCN)NC(=O)[C@H](CCN)NC1=O [Compound 100] (H-[dC](X11)T[Dab][Dab][Dab][dF]L[Dab][Dab]T; lactam 4-C) |

The remaining lines, values behind:

| SMILES | MIC E. coli ATCC MS8345 [1] [µg/mL] | MIC P. aeruginosa ATCC 27853 [2] [µg/mL] | MIC E. coli ATCC 25922 [3] [µg/mL] | MIC A. baumannii ATCC 19606 [4] [µg/mL] | MIC K. pneumoniae ATCC MS6671 [5] [µg/mL] | MIC K. pneumoniae ATCC 33495 [6] [µg/mL] | MIC K. pneumoniae ATCC 700603 [7] [µg/mL] |
| --- | --- | --- | --- | --- | --- | --- | --- |
| CCC(C)C(=O)OCCSC[C@@H](N)C(=O)N[C@H](C(=O)N[C@@H](CCN)C(=O)N[C@H]1CCNC(=O)[C@H]([C@@H](C)O)NC(=O)[C@H](CCN)NC(=O)[C@H](CCN)NC(=O)[C@H](CC(C)C)NC(=O)[C@@H](Cc2ccccc2)NC(=O)[C@H](CCN)NC1=O)[C@@H](C)O (stereo partly drawn) [Compound 95] (H-[dC](X5)T[Dab][Dab][Dab][dF]L[Dab][Dab]T; lactam 4-C) | 16 (≈ 13.4 µM) | 1 (≈ 0.837 µM) | 1 (≈ 0.837 µM) | 4 (≈ 3.35 µM) | >32 | 1 (≈ 0.837 µM) | 2 (≈ 1.67 µM) |
| CC(C)CC(=O)OCCSC[C@@H](N)C(=O)N[C@H](C(=O)N[C@@H](CCN)C(=O)N[C@H]1CCNC(=O)[C@H]([C@@H](C)O)NC(=O)[C@H](CCN)NC(=O)[C@H](CCN)NC(=O)[C@H](CC(C)C)NC(=O)[C@@H](Cc2ccccc2)NC(=O)[C@H](CCN)NC1=O)[C@@H](C)O [Compound 96] (H-[dC](X9)T[Dab][Dab][Dab][dF]L[Dab][Dab]T; lactam 4-C) | 16 (≈ 13.4 µM) | 1 (≈ 0.837 µM) | 0.25 (≈ 0.209 µM) | 4 (≈ 3.35 µM) | >32 | 1 (≈ 0.837 µM) | 1 (≈ 0.837 µM) |
| CCC(C)CC(=O)OCCSC[C@@H](N)C(=O)N[C@H](C(=O)N[C@@H](CCN)C(=O)N[C@H]1CCNC(=O)[C@H]([C@@H](C)O)NC(=O)[C@H](CCN)NC(=O)[C@H](CCN)NC(=O)[C@H](CC(C)C)NC(=O)[C@@H](Cc2ccccc2)NC(=O)[C@H](CCN)NC1=O)[C@@H](C)O (stereo partly drawn) [Compound 97] (H-[dC](X10)T[Dab][Dab][Dab][dF]L[Dab][Dab]T; lactam 4-C) | 16 (≈ 13.2 µM) | 2 (≈ 1.65 µM) | 1 (≈ 0.827 µM) | 4 (≈ 3.31 µM) | >32 | 1 (≈ 0.827 µM) | 2 (≈ 1.65 µM) |
